Test: Pharmacokinetics: toenail and plasma ravuconazole concentrations
Format: in vivo, human
Protocol: A Phase II clinical pharmacology study was conducted in subjects with onychomycosis of the toenail. The study investigated the pharmacokinetics, efficacy and safety of three different dosing regimens of fosravuconazole. […] The three treatment groups were as follows: • a.

[1] = fosravuconazole 100 mg (once daily dose) group
[2] = fosravuconazole 400 mg (pulse treatment) group

In the case of `C[C@@H](c1nc(-c2ccc(C#N)cc2)cs1)[C@](O)(Cn1cncn1)c1ccc(F)cc1F` [ravuconazole, 4-[2-[(2R,3R)-3-(2,4-difluorophenyl)-3-hydroxy-4-(1,2,4-triazol-1-yl)butan-2-yl]-1,3-thiazol-4-yl]benzonitrile], the “time toenail ravuconazole concentrations maintained at MIC90 or higher, longer than in 400 mg (pulse treatment) group” value [1] is reported as “about 4 weeks”, the “toenail ravuconazole concentrations versus MIC90, arithmetic mean” value [1] is reported as “exceeded MIC90 in arithmetic mean at Week 8 and maintained at MIC90 or higher until Week 28” and the “toenail ravuconazole concentrations versus MIC90, geometric mean” value [1] is reported as “exceeded MIC90 at Week 12 after the study treatment initiation and maintained at MIC90 or higher until Week 24”. The “toenail ravuconazole concentrations compared with 400 mg (pulse treatment) group” value (fosravuconazole 100 mg (once daily dose) group, Week 20 and onwards) was “fluctuated at higher levels”, the “toenail ravuconazole concentrations, arithmetic mean and geometric mean” value (fosravuconazole 200 mg (pulse treatment) group) was no more than 60 ng/mL and the “toenail ravuconazole concentrations versus MIC90, arithmetic mean” value [2] was “exceeded MIC90 in arithmetic mean at Week 8 after the study treatment initiation and maintained at MIC90 or higher until Week 24”. For the same molecule, the “toenail ravuconazole concentrations versus MIC90, geometric mean” value [2] was “exceeded MIC90 at Week 12 after the study treatment initiation and maintained at MIC90 or higher until Week 24”.

Source: US11324728B2, “Dosing regimens for the treatment of fungal infections” (Seren Pharmaceuticals Inc., priority 2017, dated 2022)
